Source: patent US20230024438A1, “INHIBITORS OF HIF-2ALPHA” (ARCUS BIOSCIENCES, INC., priority 2019, published 2023)

Experiments:
[1] = target: T1, HIF-2α (Homo sapiens, UniProt Q99814); assay: HIF-2α Luciferase Reporter Assay; assay type: cell-based; conditions: HIF-Luc-786-0 cells, 20 hours incubation, luciferase activity; read-out: HIF-2α Luciferase Assay
T1 construct: endogenous in cells; host or cells: 786-O cells (ATCC CRL-1932) stably carrying the Cignal Lenti HIF Luc Reporter
Method: Stable cell lines were generated by transducing 786-O cells (ATCC, CRL-1932) with Cignal Lenti HIF Luc Reporter lentivirus (CLS-007L, Qiagen) according to the manufacturer's guidelines. In brief, 0.3×10^6 786-0 cells were transduced with lentivirus at a Multiplicity of Infection (MOI) of 25 for 24 hours. After transduction, cells were replenished with fresh RPMI 1640 Medium (Cat. No. 11875085, Thermo Fisher,) supplemented with 10% FBS (Cat. No. A3160502, Gibco), 2 mM GlutaMax (Cat. No. 35050-061, Invitrogen) and 100 units of penicillin and 100 μg of streptomycin/mL (Cat. No 15070063, Thermo Fisher) for another 24 hours. Antibiotic selection was performed in cell media containing 4 μg/mL of Puromycin. After 7 days of antibiotic selection, stable pools of surviving cells were expanded and used in a luciferase reporter assay.
On day one, 20 uL of HIF-Luc-786-0 cells in OptiMem (Cat. No. 31985088, Thermo Fisher) were seeded into each well of a 384 well white opaque plate (Corning 3570) and incubated at 37° C. and 5% CO2. Twenty microliters of 2× test compounds in OptiMem were added to cells after 4 hours of incubation. Final assay conditions comprised 20,000 cells per well in 1% DMSO with test compound concentrations ranging from 50 uM to 0 uM. After 20 hours incubation at 37° C. and 5% CO2, luciferase activity was determined using ONE-Glo Luciferase Assay Reagent (E6110, Promega) following the manufacture's recommended procedure. Briefly, 40 uL of ONE-Glo luciferase reagents were added to each well and luciferase signals were measured using an Envision 2102 Multilabel Reader. Percentage maximum activity in each test well was calculated based on DMSO (maximum activity) and no cell control wells (baseline activity). The IC50 values of the test compounds were determined from compound dose response curves fitted using a standard four parameter fit equation.

[2] = target: T2, Histidine tagged HIF-2α protein containing PAS-B domain (240-350) (Homo sapiens, UniProt Q99814); assay: HIF-2α Scintillation Proximity Assay (SPA); assay type: binding; conditions: 50 nM HIF-2α protein, 25 nM radiolabeled tracer; read-out: HIF-2α Scintillation Proximity Assay
T2 construct: Histidine tagged HIF-2α protein containing PAS-B domain (240-350) was prepared and purified in house; made in house
Method: Tritium labeled compound N-(3-chlorophenyl)-4-nitro-2,1,3-benzoxadiazol-5-amine was obtained from American Radiolabeled Chemicals Inc. and copper chelate PVT SPA beads were from PerkinElmer (Cat #RPNQ0095). Histidine tagged HIF-2α protein containing PAS-B domain (240-350) was prepared and purified in house.
Compounds solubilized in DMSO were dispensed into a white 384-well polystyrene non-binding flat clear bottom plate (Greiner Bio-One, Cat #781903) using an HP D300 dispenser. Ten microliters of HIS-tagged HIF-2α protein in buffer (25 mM Tris-HCl, pH 7.4, 150 mM NaCl, 0.15% BSA and 0.001% Tween 20) was added to the compound wells and allowed to incubate for 1 hour at room temperature. Ten microliters of SPA bead mix were added to the wells and incubated for an additional 45 minutes, followed by 10 ul of ^3H-tracer solution. Final assay conditions comprised 50 nM HIF-2α protein, 25 nM radiolabeled tracer and 3 ug beads per well with compounds in 2% DMSO. The plate was read using a MicroBeta Microplate Counter (PerkinElmer) for luminescence detection. The IC50 values of the test compounds were determined from compound dose response curves fitted using a standard four parameter fit equation and are reported in Table 1.

T2 sequence (Q99814 240-350): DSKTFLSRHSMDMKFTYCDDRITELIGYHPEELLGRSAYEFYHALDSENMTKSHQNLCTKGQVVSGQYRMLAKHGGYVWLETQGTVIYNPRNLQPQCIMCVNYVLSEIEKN
T1 sequence (Q99814 whole entry): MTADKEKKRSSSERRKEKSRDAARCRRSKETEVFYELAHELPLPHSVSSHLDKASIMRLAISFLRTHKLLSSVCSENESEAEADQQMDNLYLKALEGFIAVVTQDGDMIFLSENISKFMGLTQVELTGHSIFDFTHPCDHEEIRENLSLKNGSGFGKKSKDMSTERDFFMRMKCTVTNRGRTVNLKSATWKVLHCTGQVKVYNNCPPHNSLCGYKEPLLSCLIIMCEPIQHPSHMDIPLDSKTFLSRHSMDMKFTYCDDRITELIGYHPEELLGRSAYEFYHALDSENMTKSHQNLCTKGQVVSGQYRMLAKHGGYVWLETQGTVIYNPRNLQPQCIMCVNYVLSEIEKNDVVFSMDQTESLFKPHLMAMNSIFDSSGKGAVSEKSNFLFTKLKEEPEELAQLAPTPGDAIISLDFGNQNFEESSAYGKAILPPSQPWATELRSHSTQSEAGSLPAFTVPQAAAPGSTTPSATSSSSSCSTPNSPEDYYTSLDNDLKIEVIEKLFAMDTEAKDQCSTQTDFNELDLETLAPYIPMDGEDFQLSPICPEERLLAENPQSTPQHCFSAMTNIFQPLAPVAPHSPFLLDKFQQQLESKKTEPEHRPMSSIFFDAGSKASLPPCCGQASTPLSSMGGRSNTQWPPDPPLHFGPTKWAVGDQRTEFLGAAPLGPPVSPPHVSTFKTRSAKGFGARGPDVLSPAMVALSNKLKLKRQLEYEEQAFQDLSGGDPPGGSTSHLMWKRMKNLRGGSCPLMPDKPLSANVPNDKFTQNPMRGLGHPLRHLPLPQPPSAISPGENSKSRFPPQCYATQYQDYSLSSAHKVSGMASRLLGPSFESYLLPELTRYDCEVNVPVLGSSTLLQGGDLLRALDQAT

| Structure (SMILES) | IC50 [1] [µM] | IC50 [2] [µM] |
| --- | --- | --- |
| N#Cc1cc(F)cc(Nc2ncnc3[nH]ncc23)c1 [Example 67, 3-Fluoro-5-({1H-pyrazolo[3,4-d]pyrimidin-4-yl}amino)benzonitrile] | 1 to 10 |  |
| O=S(=O)(c1ccc(Oc2cc(Cl)cc(OC(F)(F)F)c2)c2cn[nH]c12)C(F)(F)F [Example 29, 4-[3-Chloro-5-(trifluoromethoxy)phenoxy]-7-(trifluoromethylsulfonyl)-1H-indazole] | > 10 | > 10 |
| CS(=O)(=O)c1ccc(Nc2cc(F)cc(C#N)c2)c2cn[nH]c12 [Example 1, 3-Fluoro-5-[(7-methanesulfonyl-1H-indazol-4-yl)amino]benzonitrile] | 1 to 10 |  |
| Cc1cc(C#N)cc(Oc2ccc(S(=O)(=O)C(F)(F)F)c3[nH]ncc23)c1 [Example 28, 3-Methyl-5-[[7-(trifluoromethylsulfonyl)-1H-indazol-4-yl]oxy]benzonitrile] | 1 to 10 | 1 to 10 |
| N#Cc1cc(Oc2ccc(S(=O)(=O)C(F)(F)F)c3[nH]ncc23)cc(C(F)(F)F)c1 [Example 39, 3-(Trifluoromethyl)-5-[[7-(trifluoromethylsulfonyl)-1H-indazol-4-yl]oxy]benzonitrile] | 1 to 10 | 1 to 10 |
| N#Cc1ccc(Oc2ccc(S(=O)(=O)C(F)(F)F)c3[nH]ncc23)cc1F [Example 34, 2-Fluoro-4-[[7-(trifluoromethylsulfonyl)-1H-indazol-4-yl]oxy]benzonitrile] | > 10 | > 10 |
| O=S(=O)(c1ccc(Nc2cc(F)cc(F)c2)c2cn[nH]c12)C(F)(F)F [Example 46, (3,5-Difluorophenyl)[7-(trifluoromethylsulfonyl)-1H-indazol-4-yl]amine] | > 10 | 1 to 10 |
| O=S(=O)(c1ccc(Oc2ccc(F)cc2)c2cn[nH]c12)C(F)(F)F [Example 18, 4-(p-Fluorophenoxy)-7-(trifluoromethylsulfonyl)-1H-indazole] | 1 to 10 | > 10 |
| N#Cc1cc(F)cc(Oc2ccc(S(=O)(=O)C(F)(F)F)c3[nH]nc(Cl)c23)c1 [Example 61, 3-[(3-Chloro-7-trifluoromethanesulfonyl-1H-indazol-4-yl)oxy]-5-fluorobenzonitrile] | > 10 | < 1 |
| CS(=O)(=O)c1ccc(Oc2ccc(F)cc2F)c2cn[nH]c12 [Example 4, 4-(2,4-Difluorophenoxy)-7-methanesulfonyl-1H-indazole] | > 10 | > 10 |
| N#Cc1cc(Cl)cc(Oc2ccc(S(=O)(=O)C(F)(F)F)c3[nH]ncc23)c1 [Example 27, 3-Chloro-5-[[7-(trifluoromethylsulfonyl)-1H-indazol-4-yl]oxy]benzonitrile] | 1 to 10 | < 1 |
| Cc1n[nH]c2c(S(=O)(=O)C(F)(F)F)ccc(Oc3cc(F)cc(C#N)c3)c12 [Example 58, 3-Fluoro-5-[(3-methyl-7-trifluoromethanesulfonyl-1H-indazol-4-yl)oxy]benzonitrile] | 1 to 10 | 1 to 10 |
| N#Cc1ccc(F)c(Oc2ccc(S(=O)(=O)C(F)(F)F)c3[nH]ncc23)c1 [Example 44, 4-Fluoro-3-[(7-trifluoromethanesulfonyl-1H-indazol-4-yl)oxy]benzonitrile] | > 10 |  |
| O=S(=O)(c1ccc(NCc2ccc(F)cc2F)c2cn[nH]c12)C(F)(F)F [Example 53, N-[(2,4-difluorophenyl)methyl]-7-(trifluoromethylsulfonyl)-1H-indazol-4-amine] | > 10 | > 10 |
| CS(=O)(=O)c1ccc(Oc2cc(F)cc(C#N)c2)c2c(CO)n[nH]c12 [Example 11, 3-Fluoro-5-{[3-(hydroxymethyl)-7-methanesulfonyl-1H-indazol-4-yl]oxy}benzonitrile] | 1 to 10 | > 10 |
| O=S(=O)(c1ccc(N2CCCc3cc(F)cc(F)c32)c2cn[nH]c12)C(F)(F)F [Example 49, 6,8-Difluoro-1-(7-trifluoromethanesulfonyl-1H-indazol-4-yl)-1,2,3,4-tetrahydroquinoline] | > 10 |  |

| Structure (SMILES) | IC50 [1] [µM] | IC50 [2] [µM] |
| --- | --- | --- |
| O=S(=O)(c1ccc(NCc2ccccc2F)c2cn[nH]c12)C(F)(F)F [Example 50, N-[(2-Fluorophenyl)methyl]-7-(trifluoromethylsulfonyl)-1H-indazol-4-amine] | > 10 | > 10 |
| O=S(=O)(c1ccc(Cc2cccc(Cl)c2)c2cn[nH]c12)C(F)(F)F [Example 59, 4-[(3-Chlorophenyl)methyl]-7-trifluoromethanesulfonyl-1H-indazole] | 1 to 10 | > 10 |
| N#Cc1cc(F)cc(Oc2cnc(C(F)(F)F)c3[nH]ncc23)c1 [Example 68, 3-Fluoro-5-{[7-(trifluoromethyl)-1H-pyrazolo[3,4-c]pyridin-4-yl]oxy}benzonitrile] | 1 to 10 | 1 to 10 |
| N#Cc1cc(F)cc(Oc2ccc(S(=O)(=O)C(F)F)c3[nH]ncc23)c1 [Example 12, 5-[7-(Difluoromethylsulfonyl)-1H-indazol-4-yloxy]-3-fluorobenzonitrile] | 1 to 10 | 1 to 10 |
| CS(=O)(=O)c1ccc(Oc2cccc(Cl)c2)c2cn[nH]c12 [Example 5, 4-(3-Chlorophenoxy)-7-methanesulfonyl-1H-indazole] | 1 to 10 |  |
| CS(=O)(=O)c1ccc(Oc2cc(F)cc(Cl)c2)c2cn[nH]c12 [Example 7, 4-(3-Chloro-5-fluorophenoxy)-7-methanesulfonyl-1H-indazole] | > 10 | > 10 |
| N#Cc1cc(F)cc(Oc2c(F)cc(S(=O)(=O)C(F)(F)F)c3[nH]ncc23)c1 [Example 64, 3-Fluoro-5-[(5-fluoro-7-trifluoromethanesulfonyl-1H-indazol-4-yl)oxy]benzonitrile] | > 10 | 1 to 10 |
| O=S(=O)(c1ccc(Oc2cc(F)cc(Cl)c2)c2cn[nH]c12)C(F)(F)F [Example 40, 4-(3-Chloro-5-fluorophenoxy)-7-(trifluoromethylsulfonyl)-1H-indazole] | 1 to 10 | < 1 |
| O=S(=O)(c1ccc(Oc2cccc(Cl)c2)c2cn[nH]c12)C(F)(F)F [Example 41, 4-(3-Chlorophenoxy)-7-(trifluoromethylsulfonyl)-1H-indazole] | 1 to 10 | < 1 |
| N#Cc1cc(C#N)cc(Oc2ccc(S(=O)(=O)C(F)(F)F)c3[nH]ncc23)c1 [Example 22, 5-[(7-Trifluoromethanesulfonyl-1H-indazol-4-yl)oxy]benzene-1,3-dicarbonitrile] |  | 1 to 10 |
| N#Cc1ccc(Cl)c(Oc2ccc(S(=O)(=O)C(F)(F)F)c3[nH]ncc23)c1 [Example 43, 4-Chloro-3-[(7-trifluoromethanesulfonyl-1H-indazol-4-yl)oxy]benzonitrile] | 1 to 10 |  |
| N#Cc1cc(F)cc(Nc2cncc3[nH]ncc23)c1 [Example 66, 3-Fluoro-5-({1H-pyrazolo[3,4-c]pyridin-4-yl}amino)benzonitrile] | 1 to 10 |  |
| N#Cc1cc(F)cc(Nc2cc(Cl)cc3[nH]ncc23)c1 [Example 65, 3-[(6-Chloro-1H-indazol-4-yl)amino]-5-florobenzonitrile] | 1 to 10 |  |
| CS(=O)(=O)c1ccc(Oc2ccc(Cl)c(Cl)c2)c2cn[nH]c12 [Example 6, 4-(3,4-Dichlorophenoxy)-7-methanesulfonyl-1H-indazole] | 1 to 10 |  |
| CS(=O)(=O)c1ccc(Oc2cc(F)cc(C#N)c2)c2cn[nH]c12 [Example 3, 3-Fluoro-5-[(7-methanesulfonyl-1H-indazol-4-yl)oxy]benzonitrile] | > 10 |  |
